Measurements as given in patent US20150218516A1, “COMPOSITIONS AND METHODS FOR ENHANCING IMMUNE RESPONSES MEDIATED BY ANTIGEN-PRESENTING CELLS” (The Board of Regents of the University of Nebraska, priority 2007, published 2015).
Non-standard residues stand in square brackets, D forms with d. Residues, ends and D or L forms follow the SMILES beside them.

Tests used:
human umbilical artery = experiment: Smooth muscle contraction of human umbilical artery; assay type: cell-based; conditions: for EC50: concentration resulting in 50% maximum contraction; for pD2 ± SE: −log EC50 (M), mean ± SE, n=3
Experimental: (§1) Statistical analysis of the values obtained from pharmacologic assays was performed using one-way analysis of variance (ANOVA).

C5aRs on Human PMNs = molecular target: T1, C5aRs on Human PMNs (Homo sapiens, UniProt P21730); experiment: Competition assay with 125I-C5a for C5aR binding on intact human PMNs
T1 construct: endogenous in cells; host or cells: intact human PMNs (polymorphonuclear leukocytes)
T1 sequence (P21730 1-350): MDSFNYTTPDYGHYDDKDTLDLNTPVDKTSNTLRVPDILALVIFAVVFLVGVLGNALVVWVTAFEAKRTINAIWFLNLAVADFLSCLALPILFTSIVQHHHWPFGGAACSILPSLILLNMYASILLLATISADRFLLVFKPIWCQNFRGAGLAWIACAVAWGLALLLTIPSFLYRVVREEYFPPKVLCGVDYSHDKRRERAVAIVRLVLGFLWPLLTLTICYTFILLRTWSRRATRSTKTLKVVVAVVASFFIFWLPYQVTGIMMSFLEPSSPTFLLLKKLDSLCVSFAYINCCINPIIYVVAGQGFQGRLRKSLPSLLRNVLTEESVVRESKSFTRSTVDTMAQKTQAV
Experimental: C5a-like agonistic activity was assessed by the ability of the peptides to induce smooth muscle contraction of human umbilical artery and MPO release from human PMNs according to previously published methods (Sanderson et al., 1994, supra; Sanderson et al., J. Med. Chem. 38, 3669, 1995; Finch et al., J. Med. Chem. 40, 877, 1997). Full concentration-response curves were generated for individual peptides and natural C5a in each assay and the EC50 values (the concentration of peptide producing 50% of the maximal response to each peptide) were calculated. pD2 transforms [−log EC50 (M)] were calculated for each concentration-response curve and reported as the mean±SE. Peptide binding affinity to the C5aR was evaluated on intact human PMNs by a competition assay using ^125I-C5a according to previously described methods (Sanderson et al., 1995, supra; Finch et al., 1997, supra). Statistical analysis of the values obtained from pharmacologic assays was performed using one-way analysis of variance (ANOVA).

human PMNs = experiment: MPO release from human PMNs; assay type: cell-based; conditions: for pD2 ± SE: −log EC50 (M), mean ± SE, n=3
Experimental: as §1

SKRC-52 = conditions: cord blood T lymphocytes, dendritic cells exposed to the peptide
Experimental: (§2) An exemplary in vitro cytotoxicity assay comprises the following steps. Antigen presenting cells, such as dendritic cells, were obtained from bone marrow or blood. Dendritic cells were preferentially differentiated in culture through the addition of IL-4, GM-CSF, and TNFα for 7-10 days. Dendritic cells were then pulsed with peptides for 18 hours. MNCs were also isolated from spleens or blood (e.g., cord or peripheral) and cultured in IL-2 and GM-CSF for 7-10 days for enhanced lymphocyte proliferation. The pulsed dendritic cells were then co-cultured with the lymphocyte-enriched MNCs at a 1:10 ratio for 4 days. Lymphocyte-enriched MNC effector cells were then co-cultured with tumor target cells labeled with the bioactive fluorescent dye Calcein AM for 4 hours. Lysed cells were detected by photometrically measuring the released fluorescent dye.
(§3) Certain renal cell carcinomas express the tumor antigen G250. […] The fusion peptide was administered to APCs which were subsequently presented for 4 days to a lymphocyte-enriched population from cord blood as described hereinabove in Example 6.

SKRC-1 = conditions: low G250 expression; cord blood T lymphocytes
Experimental: as §2, §3

[1] = system: A-375 cell line (melanoma); assay type: cell-based, human
Experimental: The tumor peptide antigen tyrosinase is expressed on more than 70% of human melanoma cells that are human leukocyte antigen (HLA) A2 positive. […] The dendritic cells, presumably expressing the tyrosinase epitope, were then cultured with a lymphocyte-enriched cell population which was then cultured with melanoma cells to determine melanoma cell killing using a cytotoxic T lymphocyte assay.

LNCaP cells = system: LNCaP cells
Experimental: as §2
(§4) Certain prostate carcinomas express prostate-specific membrane antigen (PSMA). […] The fusion peptides were administered to APCs which were subsequently presented to a lymphocyte-enriched population from cord blood as described hereinabove in Example 6. After antigen presentation by pulsed DC in co-culture, CTLs were tested for their ability to lyse three different target cell monolayers in an in vitro cytotoxicity assay. […] The fusion peptides were also administered to APCs which were subsequently presented to a adult peripheral blood-derived CTLs. In vitro cytotoxicity against the human prostate cancer cell line LNCaP was then assessed using the bioactive fluorescent dye calcein AM (FIG. 11D).

BEAS-2B epithelial cells = system: BEAS-2B epithelial cells
Experimental: as §2, §4

κR(33-52) peptide = experiment: Peptide-specific ELISA of serum and protein A-purified antibody from immunized rabbits; assay type: in vivo
Experimental: Rabbits were immunized s.c. with 500 μg of […]aR (SEQ ID NO: 10) construct in complete Freund's adjuvant (GIBCO, Grand Island, N.Y.) on day 0 followed by booster injections on days 30 and 60 in incomplete Freund's adjuvant. Serum was collected starting 75 days after the initial immunization.
The presence of anti-peptide antibody was determined by using a peptide specific ELISA utilizing the free κR(33-52) peptide as previously described (Morgan et al. (1993) J. Immunol., 151: 377). Anti-κR(33-52) and normal rabbit γ-globulin (RGG) were purified by protein A Sepharose chromatography (Sigma) (Morgan et al. (1993) J. Immunol., 151: 377) prior to use.

Compound: CC[C@H](C)[C@H](NC(=O)[C@H](CCCNC(=N)N)NC(=O)[C@H](CCCNC(=N)N)NC(=O)[C@H](CCCNC(=N)N)NC(=O)[C@@H](C)NC(=O)[C@H](CC(C)C)NC(=O)[C@@H]1CCCN1C(=O)[C@H](CCSC)NC(=O)[C@@H]1CCCN1C(=O)[C@H](CCCCN)NC(=O)[C@H](Cc1ccccc1)NC(=O)[C@H](CO)NC(=O)[C@@H](N)Cc1ccc(O)cc1)C(=O)N1CCC[C@H]1C(=O)N[C@@H](CCC(N)=O)C(=O)N[C@@H](CO)C(=O)N[C@@H](CC(C)C)C(=O)N[C@@H](CC(=O)O)C(=O)N[C@@H](CO)C(=O)N[C@@H](Cc1c[nH]c2ccccc12)C(=O)N[C@@H](Cc1c[nH]c2ccccc12)C(=O)N[C@H](C(=O)N[C@@H](CO)C(=O)N[C@@H](CC(C)C)C(=O)O)[C@@H](C)O
- potency in umbilical artery contraction (in words) (human umbilical artery): significantly less potent
- EC50 (human umbilical artery): 39.4 µM
- pD2 ± SE (human umbilical artery): 4.41 ± 0.06
- binding to the C5aR (in words) (C5aRs on Human PMNs): bound poorly
- MPO release from PMNs (in words) (human PMNs): inactive
- pD2 ± SE (human PMNs): >3

Compound: CSCC[C@H](NC(=O)[C@@H]1CCCN1C(=O)[C@H](CCCCN)NC(=O)[C@H](Cc1ccccc1)NC(=O)[C@H](CO)NC(=O)[C@H](Cc1ccc(O)cc1)NC(=O)[C@H](CCCNC(=N)N)NC(=O)[C@H](CCCNC(=N)N)NC(=O)[C@@H](NC(=O)[C@H](CCCNC(=N)N)NC(=O)[C@H](C)NC(=O)[C@H](Cc1ccccc1)NC(=O)[C@H](C)NC(=O)[C@@H](NC(=O)[C@H](CO)NC(=O)[C@H](CC(C)C)NC(=O)[C@@H](N)Cc1c[nH]cn1)[C@@H](C)O)C(C)C)C(=O)N1CCC[C@H]1C(=O)N[C@@H](CC(C)C)C(=O)N[C@H](C)C(=O)N[C@@H](CCCNC(=N)N)C(=O)O (H-HLSTAFARVRRYSFKPMPL[dA]R-OH)
- cytotoxicity against SKRC-52 (in words) (SKRC-52): significant cytotoxicity
- cytotoxicity against SKRC-1 (in words) (SKRC-1): exhibited cytotoxicity

Compound: CSCC[C@H](NC(=O)[C@@H]1CCCN1C(=O)[C@H](CCCCN)NC(=O)[C@H](Cc1ccccc1)NC(=O)[C@H](CO)NC(=O)[C@H](Cc1ccc(O)cc1)NC(=O)[C@@H](NC(=O)[C@H](CCCNC(=N)N)NC(=O)[C@H](C)NC(=O)[C@H](Cc1ccccc1)NC(=O)[C@H](C)NC(=O)[C@@H](NC(=O)[C@H](CO)NC(=O)[C@H](CC(C)C)NC(=O)[C@@H](N)Cc1c[nH]cn1)[C@@H](C)O)C(C)C)C(=O)N1CCC[C@H]1C(=O)N[C@@H](CC(C)C)C(=O)N[C@H](C)C(=O)N[C@@H](CCCNC(=N)N)C(=O)O (H-HLSTAFARVYSFKPMPL[dA]R-OH)
- cytotoxicity against SKRC-52 (in words) (SKRC-52): significant cytotoxicity
- cytotoxicity against SKRC-1 (in words) (SKRC-1): exhibited cytotoxicity

Compound: CC[C@H](C)[C@H](N)C(=O)N1CCC[C@H]1C(=O)N[C@@H](CCC(N)=O)C(=O)N[C@@H](CO)C(=O)N[C@@H](CC(C)C)C(=O)N[C@@H](CC(=O)O)C(=O)N[C@@H](CO)C(=O)N[C@@H](Cc1c[nH]c2ccccc12)C(=O)N[C@@H](Cc1c[nH]c2ccccc12)C(=O)N[C@H](C(=O)N[C@@H](CO)C(=O)N[C@@H](CC(C)C)C(=O)N[C@@H](CCCNC(=N)N)C(=O)N[C@@H](CCCNC(=N)N)C(=O)N[C@@H](Cc1ccc(O)cc1)C(=O)N[C@@H](CO)C(=O)N[C@@H](Cc1ccccc1)C(=O)N[C@@H](CCCCN)C(=O)N1CCC[C@H]1C(=O)N[C@@H](CCSC)C(=O)N1CCC[C@H]1C(=O)N[C@@H](CC(C)C)C(=O)N[C@H](C)C(=O)N[C@@H](CCCNC(=N)N)C(=O)NCC(=O)O)[C@@H](C)O (H-IPQSLDSWWTSLRRYSFKPMPL[dA]RG-OH)
- potency in umbilical artery contraction (in words) (human umbilical artery): significantly less potent
- EC50 (human umbilical artery): 6.78 µM
- pD2 ± SE (human umbilical artery): 5.17 ± 0.13
- binding to the C5aR (in words) (C5aRs on Human PMNs): significantly less affinity
- MPO release from PMNs (in words) (human PMNs): unable to induce a full response
- EC50 (human PMNs; 50% maximum release of myeloperoxidase): 2.56 µM
- pD2 ± SE (human PMNs): 5.59 ± 0.28

Compound: CC(C)C[C@H](NC(=O)[C@@H](N)CC(C)C)C(=O)N[C@@H](Cc1c[nH]cn1)C(=O)N[C@@H](CCC(=O)O)C(=O)N[C@H](C(=O)N[C@@H](CC(=O)O)C(=O)N[C@@H](CO)C(=O)N[C@@H](C)C(=O)N[C@H](C(=O)O)C(C)C)[C@@H](C)O [PSMA p1]
- cytotoxicity against A-375 (in words) [1]: not cytotoxic
- cytotoxicity against LNCaP (in words) (LNCaP cells): did not exhibit significant cytotoxicity
- cytotoxicity against BEAS-2B (in words) (BEAS-2B epithelial cells): not cytotoxic

Compound: CC[C@H](C)[C@H](NC(=O)[C@H](CC(=O)O)NC(=O)[C@H](Cc1ccccc1)NC(=O)[C@H](CC(C)C)NC(=O)[C@H](C)N)C(=O)N[C@@H](CCC(=O)O)C(=O)N[C@@H](CO)C(=O)N[C@@H](CCCCN)C(=O)N[C@H](C(=O)O)C(C)C [PSMA p2]
- cytotoxicity against A-375 (in words) [1]: not cytotoxic
- cytotoxicity against LNCaP (in words) (LNCaP cells): did not exhibit significant cytotoxicity
- cytotoxicity against BEAS-2B (in words) (BEAS-2B epithelial cells): not cytotoxic

Compound: FPGWAEPDSNGSAGSEDAQLYSFKPMPLaR
- antibody concentration at which binding to free κR(33-52) was detectable (κR(33-52) peptide; protein A-purified antibody from immunized rabbits): less than 0.1 ng/ml
- ED50 titer (κR(33-52) peptide; protein A-purified antibody, multiple bleedings): 1 to 10 ng/mL
- serum titer against free κR(33-52) peptide (κR(33-52) peptide; rabbits, 500 μg s.c. in Freund's adjuvant): approximately 10^5
